Like-named read-outs stand apart in the source and are kept apart here.
Experiments:
H. pylori = assay: Verification of resistance breakpoint: growth of laboratory strains on Columbia solid culture medium with added antibiotics, 72 hours; assay type: cell-based, Helicobacter pylori; conditions: for growth of sensitive strains: levofloxacin 0.5, clarithromycin 0.5, metronidazole 4, amoxicillin 0.5 μg/mL; for optimal concentration for adding antibiotics: conclusion of breakpoint verification
Description: The plates are cooled and inverted for approximately 10 mL/piece, marked properly for the subsequent use.
(2) Preparation of bacterial solution: H. pylori grown in logarithmic phase on a solid plate is taken to prepare a bacterial suspension by using BHI. The concentration OD600 is adjusted to 0.3 (1×10^8 CFU/mL), diluted 10 times for the subsequent use.
(3) Inoculation of bacterial solution: 10 μL of bacterial solution is taken and added to Columbia culture medium and the results are determined after cultivating for 72 hours.
(4) Result determination: the minimum drug concentration for no growth of bacteria on the plate is the minimum inhibitory concentration of the bacteria against the drug.

[1] = test system: clinical H. pylori strain; assay: MIC of clinical H. pylori strains by micro dilution method; assay type: cell-based; conditions: Helicobacter pylori, 72 h
Description: The characteristic culture media (A, B, C, D, E) are cultivated at a constant temperature of 37° C. for 36 hours in a three gas incubator. The characteristic culture media are removed and placed in a natural environment for 30 minutes to observe whether there are discolorations at the point of the culture medium where the specimen is dropped in. […] Another 100 μL of the specimen is taken and coated on Columbia solid culture medium and cultivated in a three gas incubator at a constant temperature of 37° C. for 3 days to 5 days. The number of colonies on the plate is counted to determine the initial inoculation amount. The micro dilution method is adopted to test the MIC of clinical specimen H. pylori, the test is meaningful only when there is no bacterial growth in the negative control well without bacteria and there is bacterial growth in the positive well with bacteria but without antibiotics.
H. pylori single colony grown on Colombian culture medium is taken (which is confirmed as H. pylori by urease, oxidase, catalase, and PCR testing of CagA gene, as illustrated in FIG. 13) and the bacteria are increased. During the preparation of MIC plates and bacterial solution, H. pylori with logarithmic growth phase is taken to prepare a bacterial suspension by using BHI. The concentration OD600 is adjusted to 0.3 (1×10^8 CFU/mL, diluted 10 times, 10 μL is taken and added to wells 1-8 (with a bacterial solution concentration of approximately 1.0×10^6 CFU/mL per well, cultivated for 72 hours to determine the results.

[2] = clinical strain FY-31, approximately 1.0×10^6 CFU/mL per well, 72 hours, read-out: MIC
[3] = clinical strain FY-43, approximately 1.0×10^6 CFU/mL per well, 72 hours, read-out: MIC
[4] = clinical strain FY-47, approximately 1.0×10^6 CFU/mL per well, 72 hours, read-out: MIC
[5] = clinical strain FY-52, approximately 1.0×10^6 CFU/mL per well, 72 hours, read-out: MIC
[6] = strain 159, antibiotic 0.25 μg/mL
[7] = strain 159, antibiotic 0.5 μg/mL
[8] = strain 161, antibiotic 0.25 μg/mL
[9] = strain 161, antibiotic 0.5 μg/mL
[10] = strain 162, antibiotic 0.25 μg/mL
[11] = strain 162, antibiotic 0.5 μg/mL
[12] = strain 163, antibiotic 0.25 μg/mL
[13] = strain 163, antibiotic 0.5 μg/mL
[14] = strain 286, antibiotic 0.25 μg/mL
[15] = strain 286, antibiotic 0.5 μg/mL
[16] = strain 287, antibiotic 0.25 μg/mL
[17] = strain 287, antibiotic 0.5 μg/mL
[18] = strain 289, antibiotic 0.25 μg/mL
[19] = strain 289, antibiotic 0.5 μg/mL
[20] = strain 290, antibiotic 0.25 μg/mL
[21] = strain 290, antibiotic 0.5 μg/mL
[22] = strain 26695, antibiotic 0.25 μg/mL
[23] = strain 26695, antibiotic 0.5 μg/mL
[24] = strain 26695, antibiotic 1 μg/mL
[25] = strain G27, antibiotic 0.25 μg/mL
[26] = strain G27, antibiotic 0.5 μg/mL

Structure (SMILES): CC1(C)S[C@@H]2[C@H](NC(=O)[C@H](N)c3ccc(O)cc3)C(=O)N2[C@H]1C(=O)O [Amoxicillin, amoxicillin]
- growth of sensitive strains (H. pylori): no sensitive strain grows
- growth of bacterial (H. pylori; strain 159, antibiotic 0.0313 μg/mL): +
- growth of bacterial (H. pylori; strain 161, antibiotic 0.0313 μg/mL): +
- growth of bacterial (H. pylori; strain 162, antibiotic 0.0313 μg/mL): +
- growth of bacterial (H. pylori; strain 163, antibiotic 0.0313 μg/mL): +
- growth of bacterial (H. pylori; strain 286, antibiotic 0.0313 μg/mL): −
- growth of bacterial (H. pylori; strain 287, antibiotic 0.0313 μg/mL): +
- growth of bacterial (H. pylori; strain 289, antibiotic 0.0313 μg/mL): +
- growth of bacterial (H. pylori; strain 290, antibiotic 0.0313 μg/mL): +
- growth of bacterial (H. pylori; strain 26695, antibiotic 0.0313 μg/mL): +
- growth of bacterial (H. pylori; strain G27, antibiotic 0.0313 μg/mL): +
- MIC [1, 2]: 0.0312 µg/mL
- MIC [1, 3]: 0.0312 µg/mL
- MIC [1, 4]: 0.0312 µg/mL
- MIC [1, 5]: < 0.0312 µg/mL

Structure (SMILES): CC[C@H]1OC(=O)[C@H](C)[C@@H](O[C@H]2C[C@@](C)(OC)[C@@H](O)[C@H](C)O2)[C@H](C)[C@@H](O[C@@H]2O[C@H](C)C[C@H](N(C)C)[C@H]2O)[C@](C)(OC)C[C@@H](C)C(=O)[C@H](C)[C@@H](O)[C@]1(C)O [Clarithromycin, clarithromycin]
- optimal concentration for adding antibiotics (H. pylori): 0.5 µg/mL
- growth of sensitive strains (H. pylori): no sensitive strain grows
- growth of bacterial (H. pylori; [6]): +
- growth of bacterial (H. pylori; [7]): +
- growth of bacterial (H. pylori; strain 159, antibiotic 1 μg/mL): −
- growth of bacterial (H. pylori; [8]): +
- growth of bacterial (H. pylori; [9]): +
- growth of bacterial (H. pylori; strain 161, antibiotic 1 μg/mL): −
- growth of bacterial (H. pylori; [10]): +
- growth of bacterial (H. pylori; [11]): +
- growth of bacterial (H. pylori; strain 162, antibiotic 1 μg/mL): −
- growth of bacterial (H. pylori; [12]): −
- growth of bacterial (H. pylori; [13]): −
- growth of bacterial (H. pylori; strain 163, antibiotic 1 μg/mL): −
- growth of bacterial (H. pylori; [14]): +
- growth of bacterial (H. pylori; [15]): +
- growth of bacterial (H. pylori; strain 286, antibiotic 1 μg/mL): −
- growth of bacterial (H. pylori; [16]): +
- growth of bacterial (H. pylori; [17]): +
- growth of bacterial (H. pylori; strain 287, antibiotic 1 μg/mL): −
- growth of bacterial (H. pylori; [18]): +
- growth of bacterial (H. pylori; [19]): +
- growth of bacterial (H. pylori; strain 289, antibiotic 1 μg/mL): +
- growth of bacterial (H. pylori; [20]): +
- growth of bacterial (H. pylori; [21]): +
- growth of bacterial (H. pylori; strain 290, antibiotic 1 μg/mL): −
- growth of bacterial (H. pylori; [22]): +
- growth of bacterial (H. pylori; [23]): −
- growth of bacterial (H. pylori; [24]): −
- growth of bacterial (H. pylori; [25]): +
- growth of bacterial (H. pylori; [26]): −
- growth of bacterial (H. pylori; strain G27, antibiotic 1 μg/mL): −
- MIC [1]: 0.125 µg/mL
- MIC [1, 2]: 0.0625 µg/mL
- MIC [1, 4]: 0.0625 µg/mL
- MIC [1, 5]: 0.25 µg/mL

Structure (SMILES): C[C@H]1COc2c(N3CCN(C)CC3)c(F)cc3c(=O)c(C(=O)O)cn1c23 [Levofloxacin, levofloxacin]
- optimal concentration for adding antibiotics (H. pylori): 0.5 µg/mL
- growth of bacterial (H. pylori; [6]): +
- growth of bacterial (H. pylori; [7]): +
- growth of bacterial (H. pylori; strain 159, antibiotic 1 μg/mL): −
- growth of bacterial (H. pylori; [8]): +
- growth of bacterial (H. pylori; [9]): +
- growth of bacterial (H. pylori; strain 161, antibiotic 1 μg/mL): −
- growth of bacterial (H. pylori; [10]): +
- growth of bacterial (H. pylori; [11]): +
- growth of bacterial (H. pylori; strain 162, antibiotic 1 μg/mL): −
- growth of bacterial (H. pylori; [12]): +
- growth of bacterial (H. pylori; [13]): +
- growth of bacterial (H. pylori; strain 163, antibiotic 1 μg/mL): −
- growth of bacterial (H. pylori; [14]): +
- growth of bacterial (H. pylori; [15]): +
- growth of bacterial (H. pylori; strain 286, antibiotic 1 μg/mL): −
- growth of bacterial (H. pylori; [16]): +
- growth of bacterial (H. pylori; [17]): +
- growth of bacterial (H. pylori; strain 287, antibiotic 1 μg/mL): −
- growth of bacterial (H. pylori; [18]): +
- growth of bacterial (H. pylori; [19]): +
- growth of bacterial (H. pylori; strain 289, antibiotic 1 μg/mL): +
- growth of bacterial (H. pylori; [20]): +
- growth of bacterial (H. pylori; [21]): +
- growth of bacterial (H. pylori; strain 290, antibiotic 1 μg/mL): +
- growth of bacterial (H. pylori; [22]): −
- growth of bacterial (H. pylori; [23]): −
- growth of bacterial (H. pylori; [24]): −
- growth of bacterial (H. pylori; [25]): +
- growth of bacterial (H. pylori; [26]): −
- growth of bacterial (H. pylori; strain G27, antibiotic 1 μg/mL): −
- MIC [1, 2]: 16 µg/mL
- MIC [1, 3]: 1 µg/mL
- MIC [1, 4]: 0.5 µg/mL
- MIC [1, 5]: 0.25 µg/mL

Structure (SMILES): Cc1ncc([N+](=O)[O-])n1CCO [Metronidazole, metronidazole]
- optimal concentration for adding antibiotics (H. pylori): 4 µg/mL
- growth of sensitive strains (H. pylori): no sensitive strain grows
- growth of bacterial (H. pylori; strain 159, antibiotic 2 μg/mL): +
- growth of bacterial (H. pylori; strain 159, antibiotic 4 μg/mL): +
- growth of bacterial (H. pylori; strain 159, antibiotic 8 μg/mL): −
- growth of bacterial (H. pylori; strain 161, antibiotic 2 μg/mL): +
- growth of bacterial (H. pylori; strain 161, antibiotic 4 μg/mL): +
- growth of bacterial (H. pylori; strain 161, antibiotic 8 μg/mL): −
- growth of bacterial (H. pylori; strain 162, antibiotic 2 μg/mL): +
- growth of bacterial (H. pylori; strain 162, antibiotic 4 μg/mL): −
- growth of bacterial (H. pylori; strain 162, antibiotic 8 μg/mL): −
- growth of bacterial (H. pylori; strain 163, antibiotic 2 μg/mL): +
- growth of bacterial (H. pylori; strain 163, antibiotic 4 μg/mL): +
- growth of bacterial (H. pylori; strain 163, antibiotic 8 μg/mL): −
- growth of bacterial (H. pylori; strain 286, antibiotic 2 μg/mL): +
- growth of bacterial (H. pylori; strain 286, antibiotic 4 μg/mL): +
- growth of bacterial (H. pylori; strain 286, antibiotic 8 μg/mL): −
- growth of bacterial (H. pylori; strain 287, antibiotic 2 μg/mL): +
- growth of bacterial (H. pylori; strain 287, antibiotic 4 μg/mL): +
- growth of bacterial (H. pylori; strain 287, antibiotic 8 μg/mL): −
- growth of bacterial (H. pylori; strain 289, antibiotic 2 μg/mL): +
- growth of bacterial (H. pylori; strain 289, antibiotic 4 μg/mL): +
- growth of bacterial (H. pylori; strain 289, antibiotic 8 μg/mL): −
- growth of bacterial (H. pylori; strain 290, antibiotic 2 μg/mL): +
- growth of bacterial (H. pylori; strain 290, antibiotic 4 μg/mL): +
- growth of bacterial (H. pylori; strain 290, antibiotic 8 μg/mL): +
- growth of bacterial (H. pylori; strain 26695, antibiotic 2 μg/mL): +
- growth of bacterial (H. pylori; strain 26695, antibiotic 4 μg/mL): −
- growth of bacterial (H. pylori; strain 26695, antibiotic 8 μg/mL): −
- growth of bacterial (H. pylori; strain G27, antibiotic 2 μg/mL): +
- growth of bacterial (H. pylori; strain G27, antibiotic 4 μg/mL): −
- growth of bacterial (H. pylori; strain G27, antibiotic 8 μg/mL): −
- MIC [1, 2]: 1 µg/mL
- MIC [1, 3]: 0.5 µg/mL
- MIC [1, 4]: 16 µg/mL
- MIC [1, 5]: 1 µg/mL
